Experiments:
[1] = tested on: HCT116 cells; experiment: Screen 2: metabolic profiling with unlabeled amino acids (LC-MS); assay type: cell-based, human; conditions: 0.5, 1, 2 mM, dose-dependent, 6 hours
Experimental: Media was changed to QMAP plus individual amino acid treatments at the start of the experiment. 200 mM amino acid stocks were used to make the QMAP+individual amino acid treatment medias that were placed in the tissue culture incubator for 30-45 minutes prior to the start of the dosing for equilibration of media bicarbonate with incubator CO2. For metabolomic profiling experiments, cells were treated with additional amino acid doses of 0.5, 1 and 2 mM, and 1 mM was used for stable isotope tracing experiments. To minimize systematic error, each amino acid dose was added as a batch (20 amino acids+vehicle control) such that each well of each plate contained a different amino acid. The process was repeated for the other two concentrations of amino acids on the next plates to make set. This was repeated four more times to achieve the sample size of 5 replicates for each of the 3 doses of amino acids. Each plate was then incubated for 6 hours in the tissue culture incubator before being rapidly washed twice with sterile water and snap frozen on liquid nitrogen before being stored at −80° C. The next day, the plates were lyophilized for 90 minutes and then stored at −80° C.
Extraction buffer was prepared by adding 2:2:1 methanol: acetonitrile: water. For profiling, the following internal standards (Cambridge Isotope Laboratories) were added at 1 μg/mL each: L-Valine-D8, L-Aspartate (^13C4, D3, ^15N) and Succinate (13C4D4). 6-well plates were removed from storage at −80° C. and 1 ml of ice-cold extraction buffer was added. Plates were incubated at −20° C. for 5 minutes, scraped, transferred to microcentrifuge tubes and frozen in liquid nitrogen. Tubes were then placed into a sonicating water bath for 10 minutes and rotated at −20° C. for 1 hour before being centrifuged at 4° C. for 10 minutes at 21,000×g. […] of extract was dried down completely using a speed-vacuum (˜90 min), dissolved in […] of acetonitrile: water (1:1), vortexed for 10 min, and stored overnight at −20° C. to allow protein precipitation. Samples were then centrifuged at 4° C. for 10 minutes at 21,000×g and the supernatants were transferred into autosampler vials for analysis. For the QCs, […] of each extract was pooled, at the step prior to drying down, mixed and dried in […] amounts alongside the samples. Once dried, QCs were processed with the samples but recombined prior to being aliquoted into autosampler vials. All samples were then frozen at −80° C., and only one set of samples, which included a QC aliquot, was thawed, vortexed and placed into the instrument.
The sheath gas flow was set to 40 units, the auxiliary gas flow was set to 15 units and the sweep gas flow was set to 1 unit. […] For tracing, […] of sample was injected twice in either positive or negative mode to maximize detection efficiency and minimize metabolite crowding using the Sim-mode.
LC-MS data was processed using the Thermo Scientific TraceFinder 5.1 software.
The three cell lines were then treated with 0.5, 1, and 2 mM of individual, unlabeled amino acids, and metabolic profiling was performed to determine how individual amino acids quantitatively altered metabolite abundance (Screen 2).

[2] = tested on: U2OS; experiment: CellTiter-Glo Luminescent Cell Viability Assay; assay type: cell-based, human; conditions: 2 mM, 24 hours, DMEM
Experimental: (§1) HT29, 293T, U2OS, and 3T3-LI cells were plated on an opaque 96-well plate in 1:1 DMEM. […] At the appropriate time point, 100 μl of CellTiter-Glo reagent (Promega #G7570) was added to each well. The plate was gently mixed for 2 minutes to induce lysis, incubated at room-temperature for 10 minutes, and then luminescence was measured.
To test whether tryptophan inhibition of growth applied to other cell lines and persisted in conventional cell culture media, two human cancer cell lines (HT29, U2OS), a transformed human embryonic kidney cell line (293T), and a mouse, fibroblast-like cell line (3T3-L1) were grown in DMEM for 24 hours and then treated with 2 mM tryptophan or vehicle. […]

[3] = tested on: 3T3-L1; experiment: CellTiter-Glo Luminescent Cell Viability Assay; assay type: cell-based, mouse; conditions: 2 mM, 24 hours, DMEM
Experimental: as §1
To test whether tryptophan inhibition of growth applied to other cell lines and persisted in conventional cell culture media, two human cancer cell lines (HT29, U2OS), a transformed human embryonic kidney cell line (293T), and a mouse, fibroblast-like cell line (3T3-L1) were grown in DMEM for 24 hours and then treated with 2 mM tryptophan or vehicle. After 24 hours, cells were assayed by CellTiter-Glo, which indicates cell viability by measuring ATP production.

## N[C@@H](Cc1c[nH]c2ccccc12)C(=O)O [tryptophan, L-tryptophan]
[1]
  distal TCA cycle metabolite levels (alpha-ketoglutarate to malate): decreased
  glutamine levels: increased
[2]
  cell viability compared to vehicle: significant decreases
[3]
  cell viability compared to vehicle: significant decreases

— patent US20250019644A1, “Quantitatively Mapping Amino Acid Properties (QMAP) Cell Culture Media” (UNIVERSITY OF IOWA RESEARCH FOUNDATION, priority 2023, published 2025)
